In PubChem BioAssay AID248 (DTP/NCI, 2004):
Inconclusive results and toxic doses are left out.

System: L1210 leukemia ip in BDF1 mice, survival T/C
Assay: NCI In Vivo Anticancer Drug Screen. Data for tumor model L1210 Leukemia (intraperitoneal) in B6D2F1 (BDF1) mice
Settings: endpoint: mean survival time, higher = longer survival
Outline: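 Mice bearing the transplanted tumor received compound or vehicle. Survival of the treated group was divided by that of the vehicle-treated control group to give the ratio.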

[1] = dose: 100.0 mg/kg/injection, schedule: Q04DX003 (ip), vehicle: saline
[2] = dose: 200.0 mg/kg/injection, schedule: Q04DX003 (ip), vehicle: saline
[3] = dose: 400.0 mg/kg/injection, schedule: Q04DX003 (ip), vehicle: saline
[4] = dose: 100.0 mg/kg/injection, schedule: Q04DX003 (ip), vehicle: Klucel (hydroxypropylcellulose) (HPC)
[5] = dose: 200.0 mg/kg/injection, schedule: Q04DX003 (ip), vehicle: Klucel (hydroxypropylcellulose) (HPC)
[6] = dose: 400.0 mg/kg/injection, schedule: Q04DX003 (ip), vehicle: Klucel (hydroxypropylcellulose) (HPC)
[7] = dose: 100.0 mg/kg/injection, schedule: Q01DX009 (ip), vehicle: saline
[8] = dose: 25.0 mg/kg/injection, schedule: Q01DX009 (ip), vehicle: Klucel (hydroxypropylcellulose) (HPC)
[9] = dose: 50.0 mg/kg/injection, schedule: Q01DX009 (ip), vehicle: Klucel (hydroxypropylcellulose) (HPC)
[10] = dose: 100.0 mg/kg/injection, schedule: Q01DX009 (ip), vehicle: Klucel (hydroxypropylcellulose) (HPC)
[11] = dose: 100.0 mg/kg/injection, schedule: Q01DX001 (ip), vehicle: other
[12] = dose: 200.0 mg/kg/injection, schedule: Q01DX001 (ip), vehicle: other
[13] = dose: 400.0 mg/kg/injection, schedule: Q01DX001 (ip), vehicle: other
[14] = dose: 50.0 mg/kg/injection, schedule: Q01DX001 (ip), vehicle: carboxymethylcellulose (CMC)

In the case of `C1#CCCCCCC#CCCCC1`, the T/C (dose: 37.5 mg/kg/injection, schedule: Q01DX009 (ip), vehicle: acetone) is reported as 89 % of control, the T/C (dose: 75.0 mg/kg/injection, schedule: Q01DX001 (ip), vehicle: acetone) is reported as 91 % of control and the T/C (dose: 75.0 mg/kg/injection, schedule: Q01DX009 (ip), vehicle: acetone) is reported as 97 % of control. The T/C (dose: 150.0 mg/kg/injection, schedule: Q01DX001 (ip), vehicle: acetone) was 94 % of control and the T/C (dose: 150.0 mg/kg/injection, schedule: Q01DX009 (ip), vehicle: acetone) was 98 % of control.
In the case of `O=C(O)c1ccc(-c2c3ccc(=O)cc-3oc3cc(O)ccc23)c(C(=O)O)c1`, the T/C [1] is reported as 97 % of control, the T/C [2] is reported as 105 % of control and the T/C [3] is reported as 97 % of control.
With `C[P+](c1ccccc1)(c1ccc(Cl)cc1)c1ccc(Cl)cc1` the T/C (dose: 25.0 mg/kg/injection, schedule: Q04DX002 (ip), vehicle: saline) was 100 % of control, the T/C (dose: 50.0 mg/kg/injection, schedule: Q04DX002 (ip), vehicle: saline) was 95 % of control and the T/C (dose: 100.0 mg/kg/injection, schedule: Q04DX002 (ip), vehicle: saline with Tween-80) was 116 % of control.
In the case of `O=C(O)c1c(Cl)ccc([N+](=O)[O-])c1Cl`, the T/C [4] is reported as 88 % of control, the T/C [5] is reported as 95 % of control and the T/C [6] is reported as 92 % of control.
With `O=C1NC(=O)C(c2cccs2)(c2cccs2)N1` the T/C (dose: 25.0 mg/kg/injection, schedule: Q01DX009 (ip), vehicle: water) was 98 % of control, the T/C (dose: 50.0 mg/kg/injection, schedule: Q01DX009 (ip), vehicle: water) was 102 % of control and the T/C (dose: 100.0 mg/kg/injection, schedule: Q01DX009 (ip), vehicle: water) was 98 % of control. The T/C (dose: 100.0 mg/kg/injection, schedule: Q04DX003 (ip), vehicle: water) was 106 % of control, the T/C (dose: 200.0 mg/kg/injection, schedule: Q01DX009 (ip), vehicle: water) was 91 % of control and the T/C (dose: 200.0 mg/kg/injection, schedule: Q04DX003 (ip), vehicle: water) was 112 % of control. For the same molecule, the T/C (dose: 300.0 mg/kg/injection, schedule: Q01DX009 (ip), vehicle: water) was 90 % of control.
`Cc1nc2sc3c(c2c(=O)[nH]1)CCCC3` was tested, and the T/C (dose: 50.0 mg/kg/injection, schedule: Q01DX001 (ip), vehicle: saline sonified) was 122 % of control, the T/C (dose: 100.0 mg/kg/injection, schedule: Q01DX001 (ip), vehicle: saline sonified) was 103 % of control and the T/C (dose: 200.0 mg/kg/injection, schedule: Q01DX001 (ip), vehicle: saline sonified) was 101 % of control.
For `CCCCN1CCN2C(=O)N(CC)CCC2C1` (stereo not drawn), the T/C (dose: 25.0 mg/kg/injection, schedule: Q04DX003 (ip), vehicle: saline) was 91 % of control, the T/C (dose: 50.0 mg/kg/injection, schedule: Q04DX003 (ip), vehicle: saline) was 98 % of control and the T/C (dose: 100.0 mg/kg/injection, schedule: Q01DX001 (ip), vehicle: saline) was 102 % of control. The T/C [1] was 116 % of control.
With `CCOC(=O)C[n+]1ccccc1` the T/C (dose: 50.0 mg/kg/injection, schedule: Q01DX009 (ip), vehicle: saline with Tween-80) was 98 % of control, the T/C (dose: 50.0 mg/kg/injection, schedule: Q01DX009 (ip), vehicle: saline) was 96 % of control and the T/C (dose: 100.0 mg/kg/injection, schedule: Q01DX009 (ip), vehicle: saline with Tween-80) was 93 % of control. The T/C [7] was 102 % of control and the T/C (dose: 200.0 mg/kg/injection, schedule: Q01DX009 (ip), vehicle: saline with Tween-80) was 91 % of control.
`CCOC(=O)/C(O)=C\c1nc(OCC)nc(OCC)c1[N+](=O)[O-]` was tested, and the T/C (dose: 93.8 mg/kg/injection, schedule: Q04DX002 (ip), vehicle: Klucel (hydroxypropylcellulose) (HPC)) was 95 % of control, the T/C (dose: 187.5 mg/kg/injection, schedule: Q04DX002 (ip), vehicle: Klucel (hydroxypropylcellulose) (HPC)) was 95 % of control and the T/C (dose: 375.0 mg/kg/injection, schedule: Q04DX002 (ip), vehicle: Klucel (hydroxypropylcellulose) (HPC)) was 100 % of control.
With `CC1(C)C(OC=O)C(C)(C)C1OC=O` (stereo not drawn) the T/C [8] was 100 % of control, the T/C [9] was 93 % of control and the T/C [10] was 94 % of control. The T/C [4] was 96 % of control and the T/C [5] was 98 % of control.
With `O=P(N1CCCCCC1)(N1CC1)N1CC1` the T/C (dose: 1.7 mg/kg/injection, schedule: Q01DX Z (ip), vehicle: saline) was 107 % of control, the T/C (dose: 2.6 mg/kg/injection, schedule: Q01DX Z (ip), vehicle: saline) was 114 % of control and the T/C (dose: 4.0 mg/kg/injection, schedule: Q01DX Z (ip), vehicle: saline) was 120 % of control. The T/C (dose: 9.0 mg/kg/injection, schedule: Q01DX Z (ip), vehicle: saline) was 152 % of control.
`O=C1CCC2CC1CCC2=O` was tested, and the T/C (dose: 18.75 mg/kg/injection, schedule: Q01DX009 (ip), vehicle: Klucel (hydroxypropylcellulose) (HPC)) was 101 % of control, the T/C (dose: 18.75 mg/kg/injection, schedule: Q04DX003 (ip), vehicle: Klucel (hydroxypropylcellulose) (HPC)) was 101 % of control and the T/C (dose: 37.5 mg/kg/injection, schedule: Q01DX009 (ip), vehicle: Klucel (hydroxypropylcellulose) (HPC)) was 101 % of control. For the same molecule, the T/C (dose: 37.5 mg/kg/injection, schedule: Q04DX003 (ip), vehicle: Klucel (hydroxypropylcellulose) (HPC)) was 97 % of control, the T/C (dose: 75.0 mg/kg/injection, schedule: Q01DX009 (ip), vehicle: Klucel (hydroxypropylcellulose) (HPC)) was 98 % of control and the T/C (dose: 75.0 mg/kg/injection, schedule: Q04DX003 (ip), vehicle: Klucel (hydroxypropylcellulose) (HPC)) was 97 % of control.
`O=C(O)c1c(F)cccc1F` was tested, and the T/C (dose: 25.0 mg/kg/injection, schedule: Q04DX003 (ip), vehicle: saline with Tween-80) was 91 % of control, the T/C (dose: 50.0 mg/kg/injection, schedule: Q04DX003 (ip), vehicle: saline with Tween-80) was 91 % of control and the T/C [4] was 95 % of control. For the same molecule, the T/C (dose: 100.0 mg/kg/injection, schedule: Q04DX003 (ip), vehicle: saline with Tween-80) was 88 % of control and the T/C [6] was 88 % of control.
`C=CCOC(=O)N[C@H](CC(C)C)C(N)=O` was tested, and the T/C [11] was 94 % of control, the T/C [12] was 110 % of control and the T/C [13] was 100 % of control.
In the case of `CCOC(=O)CN1CCN2C(=O)N(CC)CCC2C1` (stereo not drawn), the T/C [1] is reported as 95 % of control, the T/C [2] is reported as 90 % of control and the T/C [3] is reported as 101 % of control.
In the case of `COc1ccc(OC)c2cc3ccccc3cc12`, the T/C (dose: 100.0 mg/kg/injection, schedule: Q01DX001 (ip), vehicle: carboxymethylcellulose (CMC)) is reported as 106 % of control, the T/C (dose: 200.0 mg/kg/injection, schedule: Q01DX001 (ip), vehicle: carboxymethylcellulose (CMC)) is reported as 104 % of control and the T/C (dose: 400.0 mg/kg/injection, schedule: Q01DX001 (ip), vehicle: carboxymethylcellulose (CMC)) is reported as 93 % of control.
`Nc1ccc(Oc2ccc(S(=O)(=O)O)cc2)cc1` was tested, and the T/C [1] was 93 % of control, the T/C [2] was 94 % of control and the T/C [3] was 94 % of control.
`CN(C)CCCNCC(Cc1ccccc1)c1ccccc1` (stereo not drawn) was tested, and the T/C (dose: 100.0 mg/kg/injection, schedule: Q04DX002 (ip), vehicle: saline) was 93 % of control.
For `Oc1ccc(F)c2cccnc12`, the T/C [14] was 101 % of control.
`NNC(=O)c1cccs1` was tested, and the T/C [8] was 100 % of control, the T/C (dose: 25.0 mg/kg/injection, schedule: Q04DX003 (ip), vehicle: Klucel (hydroxypropylcellulose) (HPC)) was 95 % of control and the T/C [14] was 100 % of control. For the same molecule, the T/C [9] was 103 % of control, the T/C (dose: 50.0 mg/kg/injection, schedule: Q04DX003 (ip), vehicle: Klucel (hydroxypropylcellulose) (HPC)) was 95 % of control and the T/C [4] was 101 % of control.
In the case of `Cc1nccnc1Sc1ccc2ccccc2c1`, the T/C [10] is reported as 95 % of control, the T/C (dose: 200.0 mg/kg/injection, schedule: Q01DX009 (ip), vehicle: Klucel (hydroxypropylcellulose) (HPC)) is reported as 92 % of control and the T/C (dose: 400.0 mg/kg/injection, schedule: Q01DX009 (ip), vehicle: Klucel (hydroxypropylcellulose) (HPC)) is reported as 90 % of control.
For `O=C1c2cccc3cccc(c23)C(=O)N1O`, the T/C [11] was 104 % of control, the T/C [12] was 98 % of control and the T/C [13] was 106 % of control.
`C[C@@H]1C[C@@]2(C)C(=CC1=O)CC[C@@H]1C2=CC[C@@]2(C)[C@H]1CC[C@]2(C)O` was tested, and the T/C [7] was 100 % of control, the T/C (dose: 100.0 mg/kg/injection, schedule: Q04DX003 (ip), vehicle: alcohol) was 103 % of control and the T/C (dose: 200.0 mg/kg/injection, schedule: Q01DX009 (ip), vehicle: saline) was 100 % of control. For the same molecule, the T/C (dose: 200.0 mg/kg/injection, schedule: Q04DX003 (ip), vehicle: alcohol) was 103 % of control, the T/C (dose: 400.0 mg/kg/injection, schedule: Q01DX009 (ip), vehicle: saline) was 100 % of control and the T/C (dose: 400.0 mg/kg/injection, schedule: Q04DX003 (ip), vehicle: alcohol) was 97 % of control.
